Source: patent publication US8680113B2, “BMI-1 protein expression modulators” (PTC Therapeutics, Inc., priority 2008, dated 2014)

test system: Bmi-1; test: Sandwich ELISA Assay (Bmi-1 ELISA in HT-1080 cells); format: cell-based, human
How it was run: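 Lysate Bmi-1 was quantified against a recombinant GST-Bmi-1 standard (0-8000 pg/mL) by sandwich ELISA read at OD450 with OD570 reference. The ELISA used mouse monoclonal capture, rabbit anti-Bmi-1, HRP anti-rabbit IgG and TMB. Before lysis, HT-1080 cells seeded at 8000/well were exposed to compounds for 40-48 h at 37°C with 0.5% final DMSO.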

IC50	Compound
< 500 nM	COc1cc(F)c(Nc2nc(-c3c(C)nc4ccccn34)cs2)c(F)c1 [Cpd 57, N-(2,6-difluoro-4-methoxyphenyl)-4-(2-methylimidazo[1,2-a]pyridin-3-yl)-1,3-thiazol-2-amine]
< 500 nM	Cc1ccn2c(-c3csc(Nc4ccc(N(C)C)cc4)n3)c(C)nc2c1 [Cpd 64, N′-[4-(2,7-dimethylimidazo[1,2-a]pyridin-3-yl)-1,3-thiazol-2-yl]-N,N-dimethylbenzene-1,4-diamine]
< 500 nM	Cc1ccc(Nc2nc(-c3c(C)nc4cc(C)ccn34)cs2)cc1 [Cpd 32, 4-(2,7-dimethylimidazo[1,2-a]pyridin-3-yl)-N-(4-methylphenyl)-1,3-thiazol-2-amine]
< 500 nM	COc1cc(C)c(Nc2nccc(-c3c(C)nc4ccccn34)n2)c(C)c1 [Cpd 141, N-(4-methoxy-2,6-dimethylphenyl)-4-(2-methylimidazo[1,2-a]pyridin-3-yl)pyrimidin-2-amine]
500 to 1000 nM	Ic1ccc(Nc2nc(-c3cnc4ncccn34)cs2)cc1 [Cpd 83, 4-(imidazo[1,2-a]pyrimidin-3-yl)-N-(4-iodophenyl)-1,3-thiazol-2-amine]
< 500 nM	Cc1nc2ncccn2c1-c1ccnc(Nc2ccc3c(c2)OCO3)n1 [Cpd 124, N-(1,3-benzodioxol-5-yl)-4-(2-methylimidazo[1,2-a]pyrimidin-3-yl)pyrimidin-2-amine]
< 500 nM	Cc1ccn2c(-c3csc(Nc4ccc(Br)cc4)n3)c(C)nc2c1 [Cpd 68, N-(4-bromophenyl)-4-(2,7-dimethylimidazo[1,2-a]pyridin-3-yl)-1,3-thiazol-2-amine]
< 500 nM	Cc1nc2c(Br)cccn2c1-c1csc(Nc2ccc(Cl)cc2)n1 [Cpd 230, 4-(8-bromo-2-methylimidazo[1,2-a]pyridin-3-yl)-N-(4-chlorophenyl)-1,3-thiazol-2-amine]
< 500 nM	Cc1nc2ccc(Cl)cn2c1-c1csc(Nc2ccc(N(C)C)cc2)n1 [Cpd 58, N′-[4-(6-chloro-2-methylimidazo[1,2-a]pyridin-3-yl)-1,3-thiazol-2-yl]-N,N-dimethylbenzene-1,4-diamine]
< 500 nM	Cc1nc2ccc(Cl)cn2c1-c1csc(Nc2ccc(C(C)(C)C)cc2)n1 [Cpd 112, N-(4-tert-butylphenyl)-4-(6-chloro-2-methylimidazo[1,2-a]pyridin-3-yl)-1,3-thiazol-2-amine]
< 500 nM	Cc1nc2c(Br)cccn2c1-c1csc(Nc2ccccc2Cl)n1 [Cpd 233, 4-(8-bromo-2-methylimidazo[1,2-a]pyridin-3-yl)-N-(2-chlorophenyl)-1,3-thiazol-2-amine]
< 500 nM	Cc1nc2ncccn2c1-c1nc(Nc2ccc(Br)cc2)sc1C [Cpd 121, N-(4-bromophenyl)-5-methyl-4-(2-methylimidazo[1,2-a]pyrimidin-3-yl)-1,3-thiazol-2-amine]
< 500 nM	CCN(CC)c1ccc(Nc2nccc(-c3cnc4ncccn34)n2)cc1 [Cpd 263, N,N-diethyl-N′-[4-(imidazo[1,2-a]pyrimidin-3-yl)pyrimidin-2-yl]benzene-1,4-diamine]
< 500 nM	CCc1nc2ncccn2c1-c1csc(Nc2ccc(OC)cc2)n1 [Cpd 144, 4-(2-ethylimidazo[1,2-a]pyrimidin-3-yl)-N-(4-methoxyphenyl)-1,3-thiazol-2-amine]
< 500 nM	COCCOc1ccc(Nc2nc(-c3c(C)nc4ccccn34)cs2)cc1 [Cpd 52, N-[4-(2-methoxyethoxy)phenyl]-4-(2-methylimidazo[1,2-a]pyridin-3-yl)-1,3-thiazol-2-amine]
< 500 nM	Cc1ccc(Nc2nccc(-c3c(C)nc4ccccn34)n2)cc1 [Cpd 169, 4-(2-methylimidazo[1,2-a]pyridin-3-yl)-N-(4-methylphenyl)pyrimidin-2-amine]
< 500 nM	COc1cccc(Nc2nc(-c3c(C)nc4ccc(F)cn34)cs2)c1 [Cpd 236, 4-(6-fluoro-2-methylimidazo[1,2-a]pyridin-3-yl)-N-(3-methoxyphenyl)-1,3-thiazol-2-amine]
< 500 nM	CCCc1nc2ccccn2c1-c1csc(Nc2ccc(OC)c(F)c2)n1 [Cpd 171, N-(3-fluoro-4-methoxyphenyl)-4-(2-propylimidazo[1,2-a]pyridin-3-yl)-1,3-thiazol-2-amine]
< 500 nM	CC(=O)c1ccc(Nc2nc(-c3c(C)nc4cc(Cl)ccn34)cs2)cc1 [Cpd 244, 1-(4-{[4-(7-chloro-2-methylimidazo[1,2-a]pyridin-3-yl)-1,3-thiazol-2-yl]amino}phenyl)ethanone]
< 500 nM	COc1ccc(Nc2nc(-c3c(C)nc4ccc(F)cn34)cs2)cc1 [Cpd 160, 4-(6-fluoro-2-methylimidazo[1,2-a]pyridin-3-yl)-N-(4-methoxyphenyl)-1,3-thiazol-2-amine]
1000 to 3000 nM	COc1cc(F)c(Nc2nc(-c3c(C)nc4ncccn34)cs2)c(F)c1 [Cpd 20, N-(2,6-difluoro-4-methoxyphenyl)-4-(2-methylimidazo[1,2-a]pyrimidin-3-yl)thiazol-2-amine]

IC50	Compound
< 500 nM	CCOc1ccc(N(C)c2nccc(-c3c(C)nc4ccccn34)n2)cc1 [Cpd 142, N-(4-ethoxyphenyl)-N-methyl-4-(2-methylimidazo[1,2-a]pyridin-3-yl)pyrimidin-2-amine]
< 500 nM	Cc1ccc2nc(C)c(-c3csc(Nc4ccc5c(c4)OCO5)n3)n2c1 [Cpd 72, N-(1,3-benzodioxol-5-yl)-4-(2,6-dimethylimidazo[1,2-a]pyridin-3-yl)-1,3-thiazol-2-amine]
< 500 nM	COCCOc1cc(Br)c(Nc2nc(-c3c(C)nc4ccccn34)cs2)c(Br)c1 [Cpd 54, N-[2,6-dibromo-4-(2-methoxyethoxy)phenyl]-4-(2-methylimidazo[1,2-a]pyridin-3-yl)-1,3-thiazol-2-amine]
< 500 nM	Clc1cccc(Nc2nccc(-c3cnc4ncccn34)n2)c1 [Cpd 269, N-(3-chlorophenyl)-4-(imidazo[1,2-a]pyrimidin-3-yl)pyrimidin-2-amine]
< 500 nM	Cc1ccc(Nc2nc(-c3c(C)nc4ccc(Cl)cn34)cs2)cc1 [Cpd 89, 4-(6-chloro-2-methylimidazo[1,2-a]pyridin-3-yl)-N-(4-methylphenyl)-1,3-thiazol-2-amine]
< 500 nM	Cc1ccc(Nc2nc(-c3c(C)nc4cc(Cl)ccn34)cs2)cc1 [Cpd 243, 4-(7-chloro-2-methylimidazo[1,2-a]pyridin-3-yl)-N-(4-methylphenyl)-1,3-thiazol-2-amine]
< 500 nM	CN(C)c1ccc(Nc2nc(-c3cnc4ccc(Cl)cn34)cs2)cc1 [Cpd 106, N′-[4-(6-chloroimidazo[1,2-a]pyridin-3-yl)-1,3-thiazol-2-yl]-N,N-dimethylbenzene-1,4-diamine]
< 500 nM	CCCc1nc2ncccn2c1-c1csc(Nc2ccc(I)cc2)n1 [Cpd 185, N-(4-iodophenyl)-4-(2-propylimidazo[1,2-a]pyrimidin-3-yl)-1,3-thiazol-2-amine]
< 500 nM	Cc1nc2ccc(Br)cn2c1-c1csc(Nc2ccc(N(C)C)cc2)n1 [Cpd 81, N′-[4-(6-bromo-2-methylimidazo[1,2-a]pyridin-3-yl)-1,3-thiazol-2-yl]-N,N-dimethylbenzene-1,4-diamine]
< 500 nM	Cc1nc2ccccn2c1-c1csc(Nc2ccc(O)c(O)c2)n1 [Cpd 201, 4-{[4-(2-methylimidazo[1,2-a]pyridin-3-yl)-1,3-thiazol-2-yl]amino}benzene-1,2-diol]
< 500 nM	Cc1nc2ccc(Br)cn2c1-c1csc(Nc2ccc(Cl)cc2)n1 [Cpd 100, 4-(6-bromo-2-methylimidazo[1,2-a]pyridin-3-yl)-N-(4-chlorophenyl)-1,3-thiazol-2-amine]
< 500 nM	CCOc1ccc(Nc2nc(-c3c(C)nc4ccc(Cl)cn34)cs2)cc1 [Cpd 88, 4-(6-chloro-2-methylimidazo[1,2-a]pyridin-3-yl)-N-(4-ethoxyphenyl)-1,3-thiazol-2-amine]
< 500 nM	CC(=O)Nc1ccc(Nc2nc(-c3c(C)nc4ccccn34)cs2)cc1 [Cpd 194, N-(4-{[4-(2-methylimidazo[1,2-a]pyridin-3-yl)-1,3-thiazol-2-yl]amino}phenyl)acetamide]
< 500 nM	Cc1nc2ccc(Br)cn2c1-c1csc(Nc2ccc(Br)cc2)n1 [Cpd 102, 4-(6-bromo-2-methylimidazo[1,2-a]pyridin-3-yl)-N-(4-bromophenyl)-1,3-thiazol-2-amine]
< 500 nM	Cc1nc2ccccn2c1-c1ccnc(Nc2ccc(Br)cc2)n1 [Cpd 114, N-(4-bromophenyl)-4-(2-methylimidazo[1,2-a]pyridin-3-yl)pyrimidin-2-amine]
< 500 nM	Cc1nc2ccccn2c1-c1ccnc(Nc2ccc(C(=O)O)cc2)n1 [Cpd 196, 4-{[4-(2-methylimidazo[1,2-a]pyridin-3-yl)pyrimidin-2-yl]amino}benzoic acid]
< 500 nM	CC(=O)c1ccc(Nc2nc(-c3cnc4ccc(Cl)cn34)cs2)cc1 [Cpd 107, 1-(4-{[4-(6-chloroimidazo[1,2-a]pyridin-3-yl)-1,3-thiazol-2-yl]amino}phenyl)ethanone]
< 500 nM	Cc1ccc2nc(C)c(-c3csc(Nc4ccc(I)cc4)n3)n2c1 [Cpd 76, 4-(2,6-dimethylimidazo[1,2-a]pyridin-3-yl)-N-(4-iodophenyl)-1,3-thiazol-2-amine]
< 500 nM	COc1ccc(Nc2nc(-c3c(C)nc4ncccn34)cs2)cc1Cl [Cpd 46, N-(3-chloro-4-methoxyphenyl)-4-(2-methylimidazo[1,2-a]pyrimidin-3-yl)-1,3-thiazol-2-amine]
< 500 nM	COc1ccc(Nc2nc(-c3c(C)nc4ccc(Br)cn34)cs2)cc1Cl [Cpd 103, 4-(6-bromo-2-methylimidazo[1,2-a]pyridin-3-yl)-N-(3-chloro-4-methoxyphenyl)-1,3-thiazol-2-amine]
< 500 nM	Cc1nc2ccccn2c1-c1ccnc(Nc2cccc(Br)c2)n1 [Cpd 127, N-(3-bromophenyl)-4-(2-methylimidazo[1,2-a]pyridin-3-yl)pyrimidin-2-amine]

Compound	IC50
N-(4-ethoxyphenyl)-4-(2-methylimidazo[1,2-a]pyridin-3-yl)pyrimidin-2-amine [Cpd 128]	< 500 nM
